US20060154252A1, “Methods and composition for identifying therapeutic agents of atherosclerotic plaque lesions” (priority 2002, published 2006)
Entries after “also recorded” stand apart in the source; their conditions may differ.

Test system: Differentiated-THP-1
Experiment: Vesicle formation in the presence of fatty acids (Nile Red staining)
Format: cell-based
Conditions: 200 μM albumin-coupled fatty acid, 24 hours, differentiated macrophage permanent cell line
Method: Fatty acids can be prepared according to Spector A A and Hoak J C, (1969 Anal. Biochem, 32: 297-302): Breifly, 100 μmol of fatty acid (12:0, 16:0, 18:0 and 20:0) can be dissolved in 7.5 ml of hexane containing 400 mg of Celite (Sigma). The solvent is then evaporated under nitrogen by continuous magnetic stirring. The fatty acid-coated particles are then mixed with fatty acid free albumin, in serum free medium for 1 hour at room temperature under nitrogen. After centrifugation, the supernatnts containing fatty acid coupled to albumin is conserved.
Vesicle formation in the presence of fatty acids was induced as follows: briefly, THP1 differentiation was induced in a medium supplemented with 10^−7 M of phorbol 12-myristate-13-acetate (Sigma) for 24 hours at 37° C., 5% CO2. Differentiated-THP-1 was incubated with or without 200 μM of fatty acid-BSA complexes for 24 hours at 37° C., 5% CO2. After washing and paraformaldhehyde fixation, cells were stained with Nile Red (1 μg/ml) and Hoechst 33342 (10 μg/ml) solution for 10 minutes at RT. After washing, images of cells staining with Nile Red and Hoechst 33342 were automatized captured using a fluorescence microscope controlled by MetaMorph Software (Universal Imaging) and coupled with a CCD camera. After images analysis, results were expressed as the sum of Nile red intensity per cells number.

`CCCCCCCCCCCCCCCCCC(=O)O` [stearic acid] was tested. Which “induction of lipid vesicles / foam cell formation (FIG. 9)” value did it give?
The value was “Formation of foam cells; also recorded: induction of lipid vesicles”.
